{"source": "PubChem BioAssay (NCI)", "assay_in_all_cases": "inhibition of tumour cell growth, NCI panel, 48 h", "key": {"[1]": {"test_system": "SNB-75 CNS"}, "[2]": {"test_system": "ACHN renal"}, "[3]": {"test_system": "SNB-19 CNS"}, "[4]": {"test_system": "NCI-H23 lung"}, "[5]": {"test_system": "UACC-257 melanoma"}, "[6]": {"test_system": "DU-145 prostate"}, "[7]": {"test_system": "OVCAR-3 ovarian"}, "[8]": {"test_system": "SF-268 CNS"}, "[9]": {"test_system": "HCT-116 colon"}, "[10]": {"test_system": "SK-MEL-2 melanoma"}, "[11]": {"test_system": "HCT-15 colon"}, "[12]": {"test_system": "UO-31 renal"}, "[13]": {"test_system": "SK-MEL-28 melanoma"}, "[14]": {"test_system": "MDA-MB-468 breast"}, "[15]": {"test_system": "SK-OV-3 ovarian"}, "[16]": {"test_system": "CAKI-1 renal"}, "[17]": {"test_system": "LOX IMVI melanoma"}, "[18]": {"test_system": "OVCAR-4 ovarian"}, "[19]": {"test_system": "BT-549 breast"}, "[20]": {"test_system": "MDA-MB-231 breast"}, "[21]": {"test_system": "SW-620 colon"}, "[22]": {"test_system": "HOP-62 NSCLC"}, "[23]": {"test_system": "MDA-MB-435"}, "[24]": {"test_system": "RXF 393 renal"}, "[25]": {"test_system": "NCI/ADR-RES ovarian"}, "[26]": {"test_system": "COLO 205 colon"}, "[27]": {"test_system": "RPMI-8226 leukemia"}, "[28]": {"test_system": "PC-3 prostate"}, "[29]": {"test_system": "HOP-92 NSCLC"}, "[30]": {"test_system": "T-47D breast"}}, "note": "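48-hour exposure; five concentrations; linearly interpolated endpoints. GI50: concentration for 50% inhibition of growth. TGI: total growth inhibition.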", "data": [{"smiles": "CC[C@@]12CC(C(=O)OC)=C3Nc4cc5c(cc4[C@@]34CCN(C[C@H]3O[C@H]31)[C@@H]24)[C@@H]1[C@H](O5)[C@@H](O)[C@@]2(CC)CC(C(=O)OC)=C3Nc4cc(O)ccc4[C@@]34CCN1[C@@H]24", "values": [{"measurement": "GI50", "setting": "[1]", "result": 21.8, "unit": "nM"}, {"measurement": "TGI", "setting": "[1]", "result": 1190, "unit": "nM"}, {"measurement": "GI50", "setting": "[2]", "result": 363, "unit": "nM"}, {"measurement": "TGI", "setting": "[2]", "result": 12.8, "unit": "µM"}, {"measurement": "GI50", "setting": "[3]", "result": 277, "unit": "nM"}, {"measurement": "TGI", "setting": "[3]", "result": 9.06, "unit": "µM"}, {"measurement": "GI50", "setting": "[4]", "result": 278, "unit": "nM"}, {"measurement": "TGI", "setting": "[4]", "result": 2370, "unit": "nM"}, {"measurement": "GI50", "setting": "[5]", "result": 199, "unit": "nM"}, {"measurement": "TGI", "setting": "[5]", "result": 6.89, "unit": "µM"}, {"measurement": "GI50", "setting": "[6]", "result": 1720, "unit": "nM"}, {"measurement": "TGI", "setting": "[6]", "result": 11.5, "unit": "µM"}, {"measurement": "GI50", "setting": "[7]", "result": 221, "unit": "nM"}, {"measurement": "TGI", "setting": "[7]", "result": 3.58, "unit": "µM"}, {"measurement": "GI50", "setting": "[8]", "result": 1300, "unit": "nM"}, {"measurement": "TGI", "setting": "[8]", "result": 13.4, "unit": "µM"}, {"measurement": "GI50", "setting": "[9]", "result": 199, "unit": "nM"}, {"measurement": "TGI", "setting": "[9]", "result": 1760, "unit": "nM"}, {"measurement": "GI50", "setting": "[10]", "result": 876, "unit": "nM"}, {"measurement": "TGI", "setting": "[10]", "result": 5.27, "unit": "µM"}, {"measurement": "GI50", "setting": "[11]", "result": 173, "unit": "nM"}, {"measurement": "TGI", "setting": "[11]", "result": 1800, "unit": "nM"}, {"measurement": "GI50", "setting": "[12]", "result": 132, "unit": "nM"}, {"measurement": "TGI", "setting": "[12]", "result": 6.08, "unit": "µM"}, {"measurement": "GI50", "setting": "[13]", "result": 622, "unit": "nM"}, {"measurement": "TGI", "setting": "[13]", "result": 15.8, "unit": "µM"}, {"measurement": "GI50", "setting": "[14]", "result": 55.3, "unit": "nM"}, {"measurement": "TGI", "setting": "[14]", "result": 320, "unit": "nM"}, {"measurement": "GI50", "setting": "[15]", "result": 149, "unit": "nM"}, {"measurement": "TGI", "setting": "[15]", "result": 6.22, "unit": "µM"}, {"measurement": "GI50", "setting": "[16]", "result": 61.9, "unit": "nM"}, {"measurement": "TGI", "setting": "[16]", "result": 6.29, "unit": "µM"}, {"measurement": "GI50", "setting": "[17]", "result": 111, "unit": "nM"}, {"measurement": "TGI", "setting": "[17]", "result": 542, "unit": "nM"}, {"measurement": "GI50", "setting": "[18]", "result": 232, "unit": "nM"}, {"measurement": "TGI", "setting": "[18]", "result": 14.7, "unit": "µM"}, {"measurement": "GI50", "setting": "[19]", "result": 370, "unit": "nM"}, {"measurement": "TGI", "setting": "[19]", "result": 4.05, "unit": "µM"}, {"measurement": "GI50", "setting": "[20]", "result": 117, "unit": "nM"}, {"measurement": "TGI", "setting": "[20]", "result": 1900, "unit": "nM"}, {"measurement": "GI50", "setting": "[21]", "result": 530, "unit": "nM"}, {"measurement": "TGI", "setting": "[21]", "result": 5.25, "unit": "µM"}, {"measurement": "GI50", "setting": "[22]", "result": 156, "unit": "nM"}, {"measurement": "TGI", "setting": "[22]", "result": 7.58, "unit": "µM"}, {"measurement": "GI50", "setting": "[23]", "result": 191, "unit": "nM"}, {"measurement": "TGI", "setting": "[23]", "result": 8.94, "unit": "µM"}, {"measurement": "GI50", "setting": "[24]", "result": 763, "unit": "nM"}, {"measurement": "TGI", "setting": "[24]", "result": 3.89, "unit": "µM"}, {"measurement": "GI50", "setting": "[25]", "result": 1110, "unit": "nM"}, {"measurement": "TGI", "setting": "[25]", "result": 3.85, "unit": "µM"}, {"measurement": "GI50", "setting": "[26]", "result": 158, "unit": "nM"}, {"measurement": "TGI", "setting": "[26]", "result": 2280, "unit": "nM"}, {"measurement": "GI50", "setting": "[27]", "result": 109, "unit": "nM"}, {"measurement": "TGI", "setting": "[27]", "result": 13.7, "unit": "µM"}, {"measurement": "GI50", "setting": "[28]", "result": 380, "unit": "nM"}, {"measurement": "TGI", "setting": "[28]", "result": 18.8, "unit": "µM"}, {"measurement": "GI50", "setting": "[29]", "result": 127, "unit": "nM"}, {"measurement": "TGI", "setting": "[29]", "result": 11, "unit": "µM"}, {"measurement": "GI50", "setting": "[30]", "result": 143, "unit": "nM"}]}]}
